From patent publication US9006450B2 (Boehringer Ingelheim International GmbH, priority 2010, dated 2015)

The compounds below were run against T1, human ACC2 (Homo sapiens, UniProt O00763) (assay: ACC2 assay, spectrophotometric 384 well assay (NADH-linked, coupled lactate dehydrogenase/pyruvate kinase)). Conditions: ACC2 assay, hACC2 construct lacking 128 N-terminal amino acids, 25° C., 340 nm; read-out: IC50.
T1 construct: made in house; host or cells: insect cells (baculoviral expression system)
Assay type: biochemical
How it was run: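 ADP output tracked via pyruvate kinase/lactate dehydrogenase NADH oxidation, slope at 340 nm over 15 min, 25° C, with 500 μM ATP and 200 μM each acetyl-CoA and NADH. Enzyme: insect-cell-expressed human ACC2, N-terminal 128 residues deleted; pH 7.5 Tris with citrate, KHCO3. IC50 from four-parameter regression versus vehicle and no-acetyl-CoA controls.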

T1 sequence (O00763 129-2458 limits assumed): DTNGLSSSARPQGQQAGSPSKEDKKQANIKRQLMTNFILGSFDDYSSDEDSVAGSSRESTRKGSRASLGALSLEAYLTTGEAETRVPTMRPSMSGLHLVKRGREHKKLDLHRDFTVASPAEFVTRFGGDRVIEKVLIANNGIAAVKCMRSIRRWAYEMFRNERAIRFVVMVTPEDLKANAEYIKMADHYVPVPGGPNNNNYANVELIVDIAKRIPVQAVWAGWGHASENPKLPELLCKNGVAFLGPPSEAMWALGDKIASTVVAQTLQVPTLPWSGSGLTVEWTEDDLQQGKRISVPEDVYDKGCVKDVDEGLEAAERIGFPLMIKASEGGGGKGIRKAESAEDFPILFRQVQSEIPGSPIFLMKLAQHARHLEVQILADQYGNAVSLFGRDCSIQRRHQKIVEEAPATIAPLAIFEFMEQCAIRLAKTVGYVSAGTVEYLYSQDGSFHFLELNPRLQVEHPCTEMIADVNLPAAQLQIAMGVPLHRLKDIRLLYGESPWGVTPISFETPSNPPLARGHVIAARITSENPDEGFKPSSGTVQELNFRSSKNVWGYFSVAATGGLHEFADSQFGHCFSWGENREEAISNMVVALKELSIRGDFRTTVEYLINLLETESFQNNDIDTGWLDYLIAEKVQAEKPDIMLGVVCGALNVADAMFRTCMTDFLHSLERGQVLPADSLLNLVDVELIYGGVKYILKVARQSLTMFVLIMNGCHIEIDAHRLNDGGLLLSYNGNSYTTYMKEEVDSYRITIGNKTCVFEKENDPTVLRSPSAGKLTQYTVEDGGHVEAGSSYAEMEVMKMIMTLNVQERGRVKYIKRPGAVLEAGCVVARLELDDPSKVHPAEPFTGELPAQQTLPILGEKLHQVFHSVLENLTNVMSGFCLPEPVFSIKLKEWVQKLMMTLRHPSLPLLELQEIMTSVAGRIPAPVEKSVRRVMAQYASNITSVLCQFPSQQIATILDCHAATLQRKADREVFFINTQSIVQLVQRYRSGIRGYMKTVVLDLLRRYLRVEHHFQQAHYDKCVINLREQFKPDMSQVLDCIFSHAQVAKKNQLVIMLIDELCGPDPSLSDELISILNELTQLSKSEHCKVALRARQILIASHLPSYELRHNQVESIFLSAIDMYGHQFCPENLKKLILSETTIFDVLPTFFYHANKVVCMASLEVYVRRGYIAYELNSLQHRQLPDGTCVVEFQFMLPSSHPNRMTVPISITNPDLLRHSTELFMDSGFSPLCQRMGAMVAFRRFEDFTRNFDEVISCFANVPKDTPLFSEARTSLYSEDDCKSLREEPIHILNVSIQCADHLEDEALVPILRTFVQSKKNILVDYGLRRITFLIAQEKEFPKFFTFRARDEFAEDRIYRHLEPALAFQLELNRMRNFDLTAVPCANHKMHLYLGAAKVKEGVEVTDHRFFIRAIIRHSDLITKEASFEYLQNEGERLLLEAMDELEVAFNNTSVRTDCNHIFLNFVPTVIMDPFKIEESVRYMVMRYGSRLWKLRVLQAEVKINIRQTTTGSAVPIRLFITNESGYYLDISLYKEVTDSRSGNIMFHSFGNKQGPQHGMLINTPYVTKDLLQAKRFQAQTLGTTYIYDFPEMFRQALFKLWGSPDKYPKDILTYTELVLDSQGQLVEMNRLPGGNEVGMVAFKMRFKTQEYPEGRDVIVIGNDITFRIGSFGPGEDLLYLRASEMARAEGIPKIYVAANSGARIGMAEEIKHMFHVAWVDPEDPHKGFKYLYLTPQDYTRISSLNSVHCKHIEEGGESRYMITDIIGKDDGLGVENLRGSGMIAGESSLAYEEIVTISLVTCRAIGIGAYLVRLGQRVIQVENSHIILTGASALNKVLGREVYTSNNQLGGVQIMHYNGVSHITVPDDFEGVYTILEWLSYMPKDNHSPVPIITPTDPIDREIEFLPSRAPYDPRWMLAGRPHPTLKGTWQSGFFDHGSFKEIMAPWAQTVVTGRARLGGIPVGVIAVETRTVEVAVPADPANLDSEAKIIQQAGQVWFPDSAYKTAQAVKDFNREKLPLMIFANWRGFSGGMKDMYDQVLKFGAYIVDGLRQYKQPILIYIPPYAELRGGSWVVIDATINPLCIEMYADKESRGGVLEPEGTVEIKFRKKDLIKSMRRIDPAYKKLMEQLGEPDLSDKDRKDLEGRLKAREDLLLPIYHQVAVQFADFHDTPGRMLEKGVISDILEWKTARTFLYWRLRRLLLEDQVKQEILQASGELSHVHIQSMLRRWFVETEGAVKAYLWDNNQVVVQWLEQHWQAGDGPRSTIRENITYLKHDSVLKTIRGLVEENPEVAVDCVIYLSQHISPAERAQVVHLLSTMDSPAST

IC50 [nM] | SMILES
15100 | CC(=O)N[C@@H](C)c1ccc(C2CCN(c3ncc(C(=O)N4CCN(C(C)=O)CC4)cn3)CC2)cc1 [Example 18.53]
850 | CC(=O)N[C@@H](C)c1ccc(C2CCN(c3nccc(C(F)(F)F)n3)CC2)cc1 [Example 4.11]
10500 | CC(=O)N[C@@H](C)c1ccc(C2CCN(c3cc(NCCc4ccccc4)ncn3)CC2)cc1 [Example 11.72]
420 | CC(=O)N[C@@H](C)c1ccc(C2CCN(c3ncc(-c4cc(C)ccc4C)cn3)CC2)cc1 [Example 10.54]
3600 | CCOc1ccc(N2CCC(c3ccc([C@H](C)NC(=O)c4cc[nH]n4)cc3)CC2)cc1 [Example 6.29]
1600 | CC(=O)N[C@@H](C)c1ccc(C2CCN(c3ncc(C(=O)N4CCc5ccccc54)cn3)CC2)cc1 [Example 18.9]
410 | CC(=O)N[C@@H](C)c1ccc(C2CCN(c3ccc(OCC4CC4)c(C)c3)CC2)cc1 [Example 9.38]
330 | CCCCOc1cccc(N2CCC(c3ccc([C@H](C)NC(C)=O)cc3)CC2)c1 [Example 8.6]
9300 | CC(=O)N[C@@H](C)c1ccc(C2CCN(c3ncc(C(=O)N(C)Cc4cccnc4)cn3)CC2)cc1 [Example 18.31]
160 | CC(=O)N[C@@H](C)c1ccc(C2CCN(c3ncc(OCC4CC4(F)F)cn3)CC2)cc1 (some centres unmarked) [Example 4.53]
510 | CCCc1cnc(N2CCC(c3ccc([C@H](C)NC(C)=O)cc3)CC2)nc1 [Example 4.35]
120 | CCCOc1ccc(N2CCC(c3ccc([C@H](C)NC(C)=O)cc3)CC2)c(Cl)c1 [Example 1.33]
6000 | CC(=O)N[C@@H](C)c1ccc(C2CCN(c3cc(N[C@H](C)C(C)C)ncn3)CC2)cc1 [Example 11.76]
670 | CCOc1ccc(N2CCC(c3ccc([C@H](C)NC(=O)C4(C#N)CC4)cc3)CC2)cc1 [Example 6.20]
300 | CC(=O)N[C@@H](C)c1ccc(C2CCN(c3cc(Oc4cccc(F)c4)ncn3)CC2)cc1 [Example 11.27]
100 | COc1ccc(-c2cnc(N3CCC(c4ccc([C@H](C)NC(C)=O)cc4)CC3)nc2)cc1 [Example 4.41]
8400 | CC(=O)N[C@@H](C)c1ccc(C2CCN(c3ccc(C(F)(F)F)nc3)CC2)cc1 [Example 15.8]
220 | CC(=O)N[C@@H](C)c1ccc(C2CCN(c3ccnc(OCCC(C)C)c3)CC2)cc1 [Example 19.21]
2500 | CC(=O)N[C@@H](C)c1ccc(C2CCN(c3cc(N4CCC4)ncn3)CC2)cc1 [Example 11.99]

IC50 [nM] | SMILES
300 | CCC(C)Oc1ccc(N2CCC(c3ccc([C@H](C)NC(C)=O)cc3)CC2)cc1F (some centres unmarked) [Example 8.53]
70 | CC(=O)N[C@@H](C)c1ccc(C2CCN(c3ccnc(OC4CC=CC4)c3)CC2)cc1 [Example 19.25]
160 | CC(=O)N[C@@H](C)c1ccc(C2CCN(c3nccc(C4CC4)c3C)CC2)cc1 [Example 10.303]
180 | CCCC(C)Oc1ccc(N2CCC(c3ccc([C@H](C)NC(C)=O)cc3)CC2)cc1Cl (some centres unmarked) [Example 8.60]
140 | CCOc1ccc(N2CCC(c3ccc([C@H](C)NC(=O)N(C)C)cc3)CC2)c(F)c1 [Example 1.85]
40 | CC(=O)N[C@@H](C)c1ccc(C2CCN(c3cccc(OCC(C)(C)C)c3)CC2)cc1 [Example 9.4]
6000 | COCCOc1ccc(N2CCC(c3ccc([C@H](C)NC(C)=O)cc3)CC2)cc1C [Example 8.19]
1300 | CC(=O)N[C@@H](C)c1ccc(C2CCN(c3ncc4c(C)n[nH]c4n3)CC2)cc1 [Example 4.20]
18900 | CC(=O)N[C@@H](C)c1ccc(C2CCN(c3ncc(C(=O)N4CCC(C(N)=O)CC4)cn3)CC2)cc1 [Example 18.61]
1600 | CC(=O)N[C@@H](C)c1ccc(C2CCN(c3ccc(Oc4ccccc4)nn3)CC2)cc1 [Example 3.10]
4000 | COc1ccc(N2CCC(c3ccc([C@H](C)NC(C)=O)cc3)CC2)cc1C1CC1 [Example 1.166]
300 | CCCC(C)Oc1cccc(N2CCC(c3ccc([C@H](C)NC(C)=O)cc3)CC2)c1 (some centres unmarked) [Example 9.2]
6600 | CC(=O)N[C@@H](C)c1ccc(C2CCN(c3ncc(C(=O)N4CCc5cnccc54)cn3)CC2)cc1 [Example 18.40]
340 | CC(=O)N[C@@H](C)c1ccc(C2CCN(c3ncc(CC(C)C)cn3)CC2)cc1 [Example 10.201]
4700 | CC(=O)N[C@@H](C)c1ccc(C2CCN(c3cc(NCC(C)C)ncn3)CC2)cc1 [Example 11.65]
1200 | CC(=O)N[C@@H](C)c1ccc(C2CCN(c3nc4ccc(C)cc4s3)CC2)cc1 [Example 5.56]
25000 | CCOc1ccc(N2CCC(c3ccc([C@H](C)NC(=O)C(C)(C)OC)cc3)CC2)cc1 [Example 6.44]
130 | COc1ccc(-c2cnc(N3CCC(c4ccc([C@H](C)NC(C)=O)cc4)CC3)nc2)cc1C [Example 10.30]
3900 | CCC(NC(C)=O)c1ccc(C2CCN(c3ccnc(Oc4ccccc4)c3)CC2)cc1 (centres unmarked) [Example 15.19]

IC50 [nM] | SMILES
19200 | CC(=O)N[C@@H](C)c1ccc(C2CCN(c3ccc(C4(S(C)(=O)=O)CC4)cn3)CC2)cc1 [Example 5.8]
330 | COCCCOc1ccc(N2CCC(c3ccc([C@H](C)NC(C)=O)cc3)CC2)c(F)c1 [Example 1.99]
180 | CC(=O)N[C@@H](C)c1ccc(C2CCN(c3ccc(C(=O)Nc4ccccc4)cn3)CC2)cc1 [Example 5.30]
960 | CC(=O)NC(C)Cc1ccc(C2CCN(c3ccc(OCC4CC4)cc3)CC2)cc1 (centres unmarked) [Example 2.8]
11600 | CC(=O)N[C@@H](C)c1ccc(C2CCN(c3nc4ccccc4n3C)CC2)cc1 [Example 4.12]
970 | CC(=O)N[C@@H](C)c1ccc(C2CCN(c3ccc4oc(C)nc4c3)CC2)cc1 [Example 15.13]
2900 | CC(=O)N[C@@H](C)c1ccc(C2CCN(c3ccc(OCC4CC4)c(C#N)c3)CC2)cc1 [Example 9.40]
510 | COc1cnc(N2CCC(c3ccc([C@H](C)NC(C)=O)cc3)CC2)nc1 [Example 4.33]
760 | CCOc1ccc(N2CCC(c3ccc([C@H](C)NC(=O)C4CC(OC)C4)cc3)CC2)cc1 (some centres unmarked) [Example 6.37]
320 | COc1ccc(N2CCC(c3ccc([C@H](C)NC(C)=O)cc3)CC2)c(OC)c1 [Example 1.41]
470 | CCCCOc1ccc(N2CCC(c3ccc([C@H](C)NC(C)=O)cc3)CC2)nn1 [Example 3.13]
2700 | CCOc1ccc(N2CCC(c3ccc([C@H](C)NC(C)=O)cc3)CC2)cc1OC [Example 8.18]
1700 | CC(=O)N[C@@H](C)c1ccc(C2CCN(c3ncc(Cl)cn3)CC2)cc1 [Example 4.29]
290 | CC(=O)N[C@@H](C)c1ccc(C2CCN(c3ncc(-c4ccc5c(c4)OCCO5)cn3)CC2)cc1 [Example 10.23]
4800 | CC(=O)N[C@@H](C)c1ccc(C2CCN(c3cc(F)ncc3C)CC2)cc1 [Example 5.51]
1300 | CC(=O)N[C@@H](C)c1ccc(C2CCN(c3ccnc(OCCc4ccccc4)c3)CC2)cc1 [Example 19.9]
310 | CC(=O)N[C@@H](C)c1ccc(C2CCN(c3ncc(OC(C)C)cn3)CC2)cc1 [Example 4.51]
880 | C[C@H](NC(=O)C1CC1)c1ccc(C2CCN(c3nc(OC4CCC4)ncc3F)CC2)cc1 [Example 11.124]
